Test [1] relates to Mycosphaerella graminicola (Septoria tritici). Kind of test: Mycosphaerella graminicola (Septoria tritici) / liquid culture (Septoria blotch). Format: cell-based. The conditions noted are these: Zymoseptoria tritici, read-out: control of Mycosphaerella graminicola.
Test [2] relates to Phaeosphaeria nodorum (Septoria nodorum). Kind of test: Phaeosphaeria nodorum (Septoria nodorum) / wheat / leaf disc preventative (glume blotch). Format: in vivo. To be noted: 200 ppm, 5-7 days after application, vs untreated control. An excerpt:
Phaeosphaeria Nodorum (Septoria nodorum)/Wheat/Leaf Disc Preventative (Glume Blotch) Wheat leaf segments cv. […] The leaf disks are inoculated with a spore suspension of the fungus 2 days after application. […] P3.

The subject of a further test is Pyrenophora teres. Kind of test: Pyrenophora teres / barley / leaf disc preventative (net blotch). The conditions noted are these: 200 ppm, 5-7 days after application, vs untreated control. Format: in vivo. An excerpt: Pyrenophora teres/Barley/Leaf Disc Preventative (Net Blotch) Barley leaf segments cv. […] The leaf segments are inoculated with a spore suspension of the fungus 2 days after application. […] P5.

The mark [3] stands for this setting: 20 ppm, liquid culture, growth inhibition photometrically 4-5 days after application, vs untreated control.

Each structure is given as a SMILES string. Like-named read-outs stand apart in the source and are kept apart here.

Take `CCCCNC(=O)c1nc(Nc2cnsc2)sc1C` [Compound P1, N-butyl-2-(isothiazol-4-ylamino)-5-methyl-thiazole-4-carboxamide]: the inhibition of growth at 20 ppm in test [1] (setting [3]) was at least 80%.
On the same count and under the same terms, next, `Cc1sc(Nc2cnsc2)nc1C(=O)NCC(C)(C)C` [Compound P2, N-(2,2-dimethylpropyl)-2-(isothiazol-4-ylamino)-5-methyl-thiazole-4-carboxamide]: at least 80%.
For the compound `Cc1sc(Nc2cnsc2)nc1C(=O)NCCC(C)C` [Compound P3, N-isopentyl-2-(isothiazol-4-ylamino)-5-methyl-thiazole-4-carboxamide], in test [2], the “control of Phaeosphaeria nodorum” value is “at least 80%”. The inhibition of growth at 20 ppm in test [1] (setting [3]) was at least 80%.
For the compound `Cc1sc(Nc2cnsc2)nc1C(=O)NC(C)c1ccccc1` (stereo not shown) [Compound P4, 2-(isothiazol-4-ylamino)-5-methyl-N-(1-phenylethyl) thiazole-4-carboxamide], in test [1] (setting [3]), the inhibition of growth at 20 ppm was at least 80%.
On to `Cc1sc(Nc2cnsc2)nc1C(=O)NC1CCC12CCCC2` (stereo not shown) [Compound P5, 2-(isothiazol-4-ylamino)-5-methyl-N-spiro 3.4 octan-3-yl-thiazole-4-carboxamide], for which the “control of Pyrenophora teres” value with Pyrenophora teres is on record as “at least 80%”. Also, the inhibition of growth at 20 ppm in test [1] (setting [3]) was at least 80%.
For `Cc1sc(Nc2cnsc2)nc1C(=O)NC1CCC1(C)C` (stereo not shown) [Compound P6, N-(2,2-dimethylcyclobutyl)-2-(isothiazol-4-ylamino)-5-methyl-thiazole-4-carboxamide], the inhibition of growth at 20 ppm in test [1] was at least 80%.
On to `COCC(=O)N(c1cnsc1)c1nc(C(=O)NC2CCC23CCCC3)c(C)s1` (stereo not shown) [Compound P8, 2-isothiazol-4-yl-(2-methoxyacetyl) amino-5-methyl-N-spiro 3.4 octan-3-yl-thiazole-4-carboxamide], for which the inhibition of growth at 20 ppm in test [1] (setting [3]) is at least 80%.
Consider `Cc1sc(N(C#N)c2cnsc2)nc1C(=O)NC1CCC12CCCC2` (stereo not shown) [Compound P9, 2-cyano(isothiazol-4-yl)amino-5-methyl-N-spiro 3.4 octan-3-yl-thiazole-4-carboxamide], for which the inhibition of growth at 20 ppm in test [1] (setting [3]) was at least 80%.

Values taken from US20260240158A1, “MICROBIOCIDAL THIAZOLE DERIVATIVES” (SYNGENTA CROP PROTECTION AG, priority 2019, published 2026).
